Source: patent publication US20260250290A1 (BRISTOL-MYERS SQUIBB COMPANY, priority 2023, published 2026)
pIC50: −log10 of the molar value. Structures can show the parent of a compound that is named as a salt.

Target: T1, full length SGK1 (Homo sapiens, UniProt O00141)
T1 construct: 125 μM full length SGK1 (Life Technologies Part #PR7358A); purchased Life Technologies PR7358A
T1 sequence (O00141 1-431): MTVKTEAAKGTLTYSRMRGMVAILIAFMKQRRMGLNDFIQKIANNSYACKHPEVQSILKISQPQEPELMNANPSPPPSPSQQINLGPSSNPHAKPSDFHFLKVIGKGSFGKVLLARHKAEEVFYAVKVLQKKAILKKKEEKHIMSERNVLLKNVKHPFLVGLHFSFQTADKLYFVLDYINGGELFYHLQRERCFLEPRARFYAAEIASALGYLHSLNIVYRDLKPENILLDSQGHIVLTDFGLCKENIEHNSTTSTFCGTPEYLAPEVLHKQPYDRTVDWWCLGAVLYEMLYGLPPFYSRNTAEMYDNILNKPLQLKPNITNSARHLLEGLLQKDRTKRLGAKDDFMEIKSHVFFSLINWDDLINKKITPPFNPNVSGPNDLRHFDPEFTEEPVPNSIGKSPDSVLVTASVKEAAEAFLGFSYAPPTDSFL
Assay: SGK1 inhibition Assay A (Caliper LabChip electrophoretic separation of fluorescent peptide substrate and phosphorylated product)
Format: biochemical
Settings: Assay A; 20 μM ATP, 40 min incubation; read-out: SGK1 IC50

pIC50 | SMILES
9.00 | CN1CCN(CCOc2cc(Cl)sc2C(=O)N[C@@H]2CCCN(c3cc(-c4ccnc(F)c4)n4ncnc(N)c34)C2)CC1 [Example 167, (R)—N-(1-(4-amino-7-(2-fluoropyridin-4-yl)pyrrolo[2,1-f][1,2,4]triazin-5-yl)piperidin-3-yl)-5-chloro-3-(2-(4-methylpiperazin-1-yl)ethoxy)thiophene-2-carboxamide, 2 TFA]
8.70 | COC(=O)N1CC=C(c2cc(N3CCCC(NC(=O)c4sc(Cl)cc4OC4CCNC(C)(C)C4)C3)c3c(N)ncnn23)C1 (single isomer, unassigned) [Example 630]
7.85 | CS(=O)(=O)c1ccc(-c2cc(N3CCC[C@@H](NC(=O)c4sccc4F)C3)c3c(N)ncnn23)cc1 [Example 98, (R)-N-(1-(4-amino-7-(4-(methylsulfonyl)phenyl)pyrrolo[2,1-f][1,2,4]triazin-5-yl)piperidin-3-yl)-3-fluorothiophene-2-carboxamide]
7.85 | COC(=O)NCCOc1cc(C(F)F)sc1C(=O)N[C@@H]1CCCN(c2cc(-c3cnc(C#N)c(C)c3)n3ncnc(N)c23)C1 [Example 431, methyl (R)-(2-((2-((1-(4-amino-7-(6-cyano-5-methylpyridin-3-yl)pyrrolo[2,1-f] [1,2,4]triazin-5-yl)piperidin-3-yl)carbamoyl)-5-(difluoromethyl)thiophen-3-yl)oxy)ethyl)carbamate]
7.09 | CC(=O)N1CC=C(c2cc(N3CCC[C@@H](NC(=O)c4ccccn4)C3)c3c(N)ncnn23)C1 [Example 728, (R)-N-(1-(7-(1-acetyl-2,5-dihydro-1H-pyrrol-3-yl)-4-aminopyrrolo[2,1-f][1,2,4]triazin-5-yl)piperidin-3-yl)picolinamide]
7.66 | COC(=O)N1CC=C(c2cc(N3CCC[C@@H](NC(=O)c4sc(Cl)cc4OCCN4C[C@@H](C)O[C@@H](C)C4)C3)c3c(N)ncnn23)C1 [Example 287, Methyl 3-(4-amino-5-((R)-3-(5-chloro-3-(2-((2S,6R)-2,6-dimethylmorpholino)ethoxy)thiophene-2-carboxamido)piperidin-1-yl)pyrrolo[2,1-f] [1,2,4]triazin-7-yl)-2,5-dihydro-1H-pyrrole-1-carboxylate]
7.37 | COc1cc(-c2cc(N3CCC[C@@H](NC(=O)c4ccc(Cl)s4)C3)c3c(N)ncnn23)ccc1C#N [Example 222, (R)-N-(1-(4-amino-7-(4-cyano-3-methoxyphenyl)pyrrolo [2,1-f][1,2,4]triazin-5-yl)piperidin-3-yl)-5-chlorothiophene-2-carboxamide, TFA]
8.70 | CN(C)CCOc1cc(Cl)sc1C(=O)N[C@@H]1CCCN(c2cc(-c3ccc(C(F)F)nc3)n3ncnc(N)c23)C1 [Example 189, (R)-N-(1-(4-amino-7-(6-(difluoromethyl)pyridin-3-yl)pyrrolo[2,1-f][1,2,4]triazin-5-yl)piperidin-3-yl)-5-chloro-3-(2-(dimethylamino)ethoxy) thiophene-2-carboxamide]
6.32 | CC(=O)N1CC=C(c2cc(N3CCC[C@@H](NC(=O)c4cn5ccc(C#N)cc5n4)C3)c3c(N)ncnn23)C1 [Example 679, (R)—N-(1-(7-(1-acetyl-2,5-dihydro-1H-pyrrol-3-yl)-4-aminopyrrolo[2,1-f][1,2,4]triazin-5-yl)piperidin-3-yl)-7-cyanoimidazo[1,2-a]pyridine-2-carboxamide]
8.10 | CS(=O)(=O)c1ccc(-c2cc(N3CCC[C@@H](NC(=O)c4cccs4)C3)c3c(N)ncnn23)cc1 [Example 88, (R)-N-(1-(4-amino-7-(4-(methylsulfonyl)phenyl)pyrrolo[2,1-f][1,2,4]triazin-5-yl)piperidin-3-yl)thiophene-2-carboxamide, TFA]
8.15 | N#Cc1ccc(-c2cc(N3CCC[C@@H](NC(=O)c4sc(C(F)F)cc4OC4COC4)C3)c3c(N)ncnn23)cn1 [Example 435, (R)-N-(1-(4-amino-7-(6-cyanopyridin-3-yl)pyrrolo[2,1-f][1,2,4]triazin-5-yl)piperidin-3-yl)-5-(difluoromethyl)-3-(oxetan-3-yloxy)thiophene-2-carboxamide]
7.68 | N#Cc1ccc(-c2cc(N3CCC[C@@H](NC(=O)c4cc5ccccc5[nH]4)C3)c3c(N)ncnn23)cn1 [Example 509, (R)-N-(1-(4-amino-7-(6-cyanopyridin-3-yl)pyrrolo[2,1-f][1,2,4]triazin-5-yl)piperidin-3-yl)-1H-indole-2-carboxamide]
7.54 | CC(=O)N1CCC(Oc2cc(C(F)F)sc2C(=O)N[C@@H]2CCCN(c3cc(-c4ccc(C#N)nc4)n4ncnc(N)c34)C2)CC1 [Example 416, (R)-3-((1-acetylpiperidin-4-yl)oxy)-N-(1-(4-amino-7-(6-cyanopyridin-3-yl)pyrrolo[2,1-f][1,2,4]triazin-5-yl)piperidin-3-yl)-5-(difluoromethyl)thiophene-2-carboxamide]
7.72 | CC(=O)Nc1cccc(C(=O)N[C@@H]2CCCN(c3cc(C4=CCN(C(C)=O)C4)n4ncnc(N)c34)C2)c1 [Example 447, (R)-3-acetamido-N-(1-(7-(1-acetyl-2,5-dihydro-1H-pyrrol-3-yl)-4-aminopyrrolo[2,1-f][1,2,4]triazin-5-yl)piperidin-3-yl)benzamide]
6.71 | CC(=O)N1CC=C(c2cc(N3CCC[C@@H](NC(=O)c4sc(C(F)F)cc4C4CCN(C)CC4)C3)c3c(N)ncnn23)C1 [Example 393]
7.59 | CC(=O)N1CC=C(c2cc(N3CCC[C@@H](NC(=O)c4cccc(N(C)C)n4)C3)c3c(N)ncnn23)C1 [Example 725, (R)-N-(1-(7-(1-acetyl-2,5-dihydro-1H-pyrrol-3-yl)-4-aminopyrrolo[2,1-f][1,2,4]triazin-5-yl)piperidin-3-yl)-6-(dimethylamino) picolinamide]
8.22 | NCCC(=O)N1CC=C(c2cc(N3CCC[C@@H](NC(=O)c4ccc(Cl)s4)C3)c3c(N)ncnn23)C1 [Example 883, (R)-N-(1-(4-amino-7-(1-(3-aminopropanoy1)-2,5-dihydro-1H-pyrrol-3-yl)pyrrolo[2,1-f][1,2,4]triazin-5-y1)piperidin-3-y1)-5-chlorothiophene-2-carboxamide]
8.00 | CS(=O)(=O)c1ccc(-c2cc(N3CCC[C@@H](NC(=O)c4ccccc4OCCO)C3)c3c(N)ncnn23)cc1 [Example 59, (R)-N-(1-(4-amino-7-(4-(methylsulfonyl)phenyl)pyrrolo[2,1-f][1,2,4]triazin-5-yl)piperidin-3-yl)-2-(2-hydroxyethoxy) benzamide]
8.00 | CNCCOc1cc(Cl)sc1C(=O)N[C@@H]1CCCN(c2cc(C3=CCN(C(C)=O)C3)n3ncnc(N)c23)C1 [Example 332D, (R)—N-(1-(7-(1-acetyl-2,5-dihydro-1H-pyrrol-3-yl)-4-aminopyrrolo[2,1-f][1,2,4]triazin-5-yl)piperidin-3-yl)-5-chloro-3-(2-(methylamino)ethoxy)thiophene-2-carboxamide]
7.43 | CS(=O)(=O)c1ccc(-c2cc(N3CCC[C@@H](NC(=O)c4ccnc(N5CCOCC5)c4)C3)c3c(N)ncnn23)cc1 [Example 69, (R)-N-(1-(4-amino-7-(4-(methylsulfonyl)phenyl)pyrrolo[2,1-f][1,2,4]triazin-5-yl)piperidin-3-yl)-2-morpholinoisonicotinamide]
7.66 | CS(=O)(=O)c1ccc(-c2cc(N3CCC[C@@H](NC(=O)c4ccc(F)cc4)C3)c3c(N)ncnn23)cc1 [Example 25, (R)-N-(1-(4-amino-7-(4-(methylsulfonyl)phenyl)pyrrolo[2,1-f][1,2,4]triazin-5-yl)piperidin-3-yl)-4-fluorobenzamide]
8.10 | CC(=O)N1CC=C(c2cc(N3CCC[C@@H](NC(=O)c4ccc(-c5cn[nH]c5)s4)C3)c3c(N)ncnn23)C1 [Example 550, (R)-N-(1-(7-(1-acetyl-2,5-dihydro-1H-pyrrol-3-yl)-4-aminopyrrolo[2,1-f][1,2,4]triazin-5-yl)piperidin-3-yl)-5-(1H-pyrazol-4-yl)thiophene-2-carboxamide]
7.47 | COC(=O)N1CC=C(c2cc(N3CCC[C@@H](NC(=O)c4sc(C(F)F)cc4N4CC5(COC5)C4)C3)c3c(N)ncnn23)C1 [Example 317, Methyl (R)-3-(4-amino-5-(3-(5-(difluoromethyl)-3-(2-oxa-6-azaspiro[3.3]heptan-6-yl)thiophene-2-carboxamido)piperidin-1-yl)pyrrolo[2,1-f][1,2,4]triazin-7-yl)-2,5-dihydro-1H-pyrrole-1-carboxylate]
8.30 | CC(=O)N1CC=C(c2cc(N3CCC[C@@H](NC(=O)c4ccc(N(C)C)cc4)C3)c3c(N)ncnn23)C1 [Example 445]
7.68 | Cc1cnc(C(=O)N[C@@H]2CCCN(c3cc(-c4ccc(S(C)(=O)=O)cc4)n4ncnc(N)c34)C2)s1 [Example 101, (R)-N-(1-(4-amino-7-(4-(methylsulfonyl)phenyl)pyrrolo[2,1-f][1,2,4]triazin-5-yl)piperidin-3-yl)-5-methylthiazole-2-carboxamide]
8.15 | CC(=O)N1CC=C(c2cc(N3CCC[C@@H](NC(=O)c4csc(-c5ccccc5)n4)C3)c3c(N)ncnn23)C1 [Example 453, (R)-N-(1-(7-(1-acetyl-2,5-dihydro-1H-pyrrol-3-yl)-4-aminopyrrolo[2,1-f][1,2,4]triazin-5-yl)piperidin-3-yl)-2-phenylthiazole-4-carboxamide]
